The record followed here is patent US20200361895A1, “NOVEL SULFONAMIDE CARBOXAMIDE COMPOUNDS” (Inflazome Limited, priority 2017, published 2020).

SMILES strings stand for the structures.

In this assay the target is NLRP3 (Homo sapiens, UniProt Q96P20). Put plainly: THP-1 cells pyroptosis assay (LPS + nigericin, resazurin readout; THP IC50). The format is cell-based. Also noted: Seed THP-1 cells (25,000 cells/well) containing 1.0 μg/ml LPS in 40 μl of RPMI medium; host or cells: THP-1 cells. How it is done:
THP-1 cells (ATCC #TIB-202) were grown in RPMI containing L-glutamine (Gibco #11835) supplemented with 1 mM sodium pyruvate (Sigma #S8636) and penicillin (100 units/ml)/streptomycin (0.1 mg/ml) (Sigma #P4333) in 10% Fetal Bovine Serum (FBS) (Sigma #F0804). The cells were routinely passaged and grown to confluency (˜10^6 cells/ml). On the day of the experiment, THP-1 cells were harvested and resuspended into RPMI medium (without FBS). The cells were then counted and viability (>90%) checked by Trypan blue (Sigma #T8154). Appropriate dilutions were made to give a concentration of 625,000 cells/ml. To this diluted cell solution was added LPS (Sigma #L4524) to give a 1 μg/ml Final Assay Concentration (FAC). 40 μl of the final preparation was aliquoted into each well of a 96-well plate. The plate thus prepared was used for compound screening.
The following method step-by-step assay was followed for compound screening. • 1. Seed THP-1 cells (25,000 cells/well) containing 1.0 μg/ml LPS in 40 μl of RPMI medium (without FBS) in 96-well, black walled, clear bottom cell culture plates coated with poly-D-lysine (VWR #734-0317) • 2. Add 5 μcompound (8 points half-log dilution, with 10 μM top dose) or vehicle (DMSO 0.1% FAC) to the appropriate wells • 3. Incubate for 3 hrs at 37° C. and 5% CO2 • 4. Add 5 μnigericin (Sigma #N7143) (FAC 5 μM) to all wells • 5. Incubate for 1 hr at 37° C. and 5% CO2 • 6. At the end of the incubation period, spin plates at 300×g for 3 mins and remove supernatant • 7. Then add 50 μl of resazurin (Sigma #R7017) (FAC 100 μM resazurin in RPMI medium without FBS) and incubate plates for a further 1-2 hrs at 37° C. and 5% CO2 • 8. Plates were read in an Envision reader at Ex 560 nm and Em 590 nm • 9. IC50 data is fitted to a non-linear regression equation (log inhibitor vs response-variable slope 4-parameters)
(In general: Resazurin is reduced to fluorescent resorufin, in cell work by metabolically active cells.)

Sequence of NLRP3 (Q96P20 whole entry): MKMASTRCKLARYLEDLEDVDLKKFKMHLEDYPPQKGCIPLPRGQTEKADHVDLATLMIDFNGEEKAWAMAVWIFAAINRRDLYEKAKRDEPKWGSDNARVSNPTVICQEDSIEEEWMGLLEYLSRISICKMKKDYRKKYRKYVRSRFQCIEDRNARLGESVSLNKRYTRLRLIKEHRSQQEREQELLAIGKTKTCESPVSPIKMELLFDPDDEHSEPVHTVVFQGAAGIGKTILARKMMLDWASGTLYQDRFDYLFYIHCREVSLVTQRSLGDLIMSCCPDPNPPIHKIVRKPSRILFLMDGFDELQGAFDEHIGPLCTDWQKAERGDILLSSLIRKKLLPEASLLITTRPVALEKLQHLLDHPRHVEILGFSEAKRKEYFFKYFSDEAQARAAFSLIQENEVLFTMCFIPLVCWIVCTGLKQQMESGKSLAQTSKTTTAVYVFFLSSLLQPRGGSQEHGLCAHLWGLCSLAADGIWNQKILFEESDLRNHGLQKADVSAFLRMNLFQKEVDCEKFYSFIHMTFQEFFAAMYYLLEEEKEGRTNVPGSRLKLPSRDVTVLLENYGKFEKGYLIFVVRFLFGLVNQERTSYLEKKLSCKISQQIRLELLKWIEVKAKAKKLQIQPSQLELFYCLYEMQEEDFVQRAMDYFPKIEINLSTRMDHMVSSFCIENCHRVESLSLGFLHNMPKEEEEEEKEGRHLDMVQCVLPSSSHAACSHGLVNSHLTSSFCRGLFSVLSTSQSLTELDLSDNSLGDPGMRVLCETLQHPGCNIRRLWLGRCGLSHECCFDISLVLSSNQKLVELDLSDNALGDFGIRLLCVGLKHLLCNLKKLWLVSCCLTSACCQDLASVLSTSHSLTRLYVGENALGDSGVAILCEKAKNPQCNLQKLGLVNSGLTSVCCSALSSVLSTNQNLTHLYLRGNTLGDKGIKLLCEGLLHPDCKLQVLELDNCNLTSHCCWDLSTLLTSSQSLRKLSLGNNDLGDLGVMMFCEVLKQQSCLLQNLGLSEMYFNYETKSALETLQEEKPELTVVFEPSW

In the case of `COc1cc(-c2cc(F)cc(C(C)C)c2NC(=O)NS(=O)(=O)CC(C)C)ccn1` [Example 132, N-((4-Fluoro-2-isopropyl-6-(2-methoxypyridin-4-yl)phenyl)carbamoyl)-2-methylpropane-1-sulfonamide], the IC50 (as a rule, the concentration at which inhibition is half-maximal) is at most 1000 nM.
In the case of `COc1cc(-c2ccc3c(c2NC(=O)NS(=O)(=O)CC(C)C)CCC3)ccn1` [Example 133, N-((5-(2-Methoxypyridin-4-yl)-2,3-dihydro-1H-inden-4-yl)carbamoyl)-2-methylpropane-1-sulfonamide] it was at most 500 nM.
In the case of `CC(C)CS(=O)(=O)NC(=O)Nc1c(-c2ccncc2)cc(F)c2c1CCC2` [Example 134, N-((7-Fluoro-5-(pyridin-4-yl)-2,3-dihydro-1H-inden-4-yl)carbamoyl)-2-methylpropane-1-sulfonamide] it was at most 1000 nM.
Regarding `CC(C)c1cc(F)cc(-c2ccnc(C#N)c2)c1NC(=O)NS(=O)(=O)CCc1ccccc1` [Example 135, N-((2-(2-Cyanopyridin-4-yl)-4-fluoro-6-isopropylphenyl)carbamoyl)-2-phenylethanesulfonamide], the IC50 is at most 1000 nM.
Consider `COc1cc(-c2cc(F)cc(C(C)C)c2NC(=O)NS(=O)(=O)CCc2ccccc2)ccn1` [Example 136, N-((4-Fluoro-2-isopropyl-6-(2-methoxypyridin-4-yl)phenyl)carbamoyl)-2-phenylethanesulfonamide], for which the IC50 was at most 500 nM.
As for `COc1cc(-c2ccc3c(c2NC(=O)NS(=O)(=O)CCc2ccccc2)CCC3)ccn1` [Example 137, N-((5-(2-Methoxypyridin-4-yl)-2,3-dihydro-1H-inden-4-yl)carbamoyl)-2-phenylethanesulfonamide], the IC50 was at most 500 nM.
Regarding `CC(C)c1cc(F)cc(-c2ccnc(C#N)c2)c1NC(=O)NS(=O)(=O)C(C)c1ccccc1` (centres unmarked) [Example 139, N-((2-(2-Cyanopyridin-4-yl)-4-fluoro-6-isopropylphenyl)carbamoyl)-1-phenylethanesulfonamide], the IC50 was at most 5000 nM.
Turning to `COc1cc(-c2cc(F)cc(C(C)C)c2NC(=O)NS(=O)(=O)C(C)c2ccccc2)ccn1` (centres unmarked) [Example 140, N-((4-Fluoro-2-isopropyl-6-(2-methoxypyridin-4-yl)phenyl)carbamoyl)-1-phenylethanesulfonamide], the IC50 was at most 5000 nM.
As for `COc1cc(-c2ccc3c(c2NC(=O)NS(=O)(=O)C(C)c2ccccc2)CCC3)ccn1` (centres unmarked) [Example 141, N-((5-(2-Methoxypyridin-4-yl)-2,3-dihydro-1H-inden-4-yl)carbamoyl)-1-phenylethanesulfonamide], the IC50 was at most 1000 nM.
In the case of `CC(c1ccccc1)S(=O)(=O)NC(=O)Nc1c(-c2ccncc2)cc(F)c2c1CCC2` (centres unmarked) [Example 142, N-((7-Fluoro-5-(pyridin-4-yl)-2,3-dihydro-1H-inden-4-yl)carbamoyl)-1-phenylethanesulfonamide] it was at most 5000 nM; in that of `COc1cc(-c2ccc3c(c2NC(=O)NS(C)(=O)=O)CCC3)ccn1` [Example 143, N-((5-(2-Methoxypyridin-4-yl)-2,3-dihydro-1H-inden-4-yl)carbamoyl)methanesulfonamide], at most 1000 nM.
Regarding `COc1cc(-c2cc3c(cc2NC(=O)NS(=O)(=O)c2ccn(C4CC4)n2)CCC3)ccn1` [Example 144, 1-Cyclopropyl-N-((6-(2-methoxypyridin-4-yl)-2,3-dihydro-1H-inden-5-yl)carbamoyl)-1H-pyrazole-3-sulfonamide], the IC50 is at most 5000 nM.
As for `CCN(CC)CCCS(=O)(=O)NC(=O)Nc1c(-c2ccnc(C#N)c2)cc(F)cc1C(C)C` [Example 146, N-((2-(2-Cyanopyridin-4-yl)-4-fluoro-6-isopropylphenyl)carbamoyl)-3-(diethylamino)propane-1-sulfonamide], the IC50 was at most 1000 nM.
With `CCN(CC)CCCS(=O)(=O)NC(=O)Nc1c(-c2ccnc(OC)c2)cc(F)cc1C(C)C` [Example 147, 3-(Diethylamino)-N-((4-fluoro-2-isopropyl-6-(2-methoxypyridin-4-yl)phenyl)carbamoyl)propane-1-sulfonamide], the IC50 is at most 500 nM.
In the case of `CCN(CC)CCCS(=O)(=O)NC(=O)Nc1c(-c2ccnc(OC)c2)ccc2c1CCC2` [Example 148, 3-(Diethylamino)-N-((5-(2-methoxypyridin-4-yl)-2,3-dihydro-1H-inden-4-yl)carbamoyl)propane-1-sulfonamide] it was at most 500 nM; in that of `CCN(CCCS(=O)(=O)NC(=O)Nc1c(-c2ccnc(OC)c2)cc(F)cc1C(C)C)Cc1ccccc1` [Example 150, 3-(Benzyl(ethyl)amino)-N-((4-fluoro-2-isopropyl-6-(2-methoxypyridin-4-yl)phenyl)carbamoyl)propane-1-sulfonamide], at most 500 nM.
Consider `CCN(CCCS(=O)(=O)NC(=O)Nc1c(-c2ccnc(C#N)c2)cc(F)cc1C(C)C)Cc1ccccc1` [Example 151, 3-(Benzyl(ethyl)amino)-N-((2-(2-cyanopyridin-4-yl)-4-fluoro-6-isopropylphenyl)carbamoyl)propane-1-sulfonamide], for which the IC50 was at most 5000 nM.
As for `CCN(CCCS(=O)(=O)NC(=O)Nc1c(-c2ccnc(OC)c2)ccc2c1CCC2)Cc1ccccc1` [Example 152, 3-(Benzyl(ethyl)amino)-N-((5-(2-methoxypyridin-4-yl)-2,3-dihydro-1H-inden-4-yl)carbamoyl)propane-1-sulfonamide], the figure is at most 500 nM; as for `COCCCS(=O)(=O)NC(=O)Nc1c(-c2ccnc(C#N)c2)cc(F)cc1C(C)C` [Example 154, N-((2-(2-Cyanopyridin-4-yl)-4-fluoro-6-isopropylphenyl)carbamoyl)-3-methoxypropane-1-sulfonamide], at most 5000 nM; as for `COCCCS(=O)(=O)NC(=O)Nc1c(-c2ccnc(OC)c2)cc(F)cc1C(C)C` [Example 155, N-((4-Fluoro-2-isopropyl-6-(2-methoxypyridin-4-yl)phenyl)carbamoyl)-3-methoxypropane-1-sulfonamide], at most 500 nM.
As for `COCCCS(=O)(=O)NC(=O)Nc1c(-c2ccnc(OC)c2)ccc2c1CCC2` [Example 156, 3-Methoxy-N-((5-(2-methoxypyridin-4-yl)-2,3-dihydro-1H-inden-4-yl)carbamoyl)propane-1-sulfonamide], the figure is at most 500 nM; as for `COCCCS(=O)(=O)NC(=O)Nc1c(-c2ccncc2)cc(F)c2c1CCC2` [Example 157, N-((7-Fluoro-5-(pyridin-4-yl)-2,3-dihydro-1H-inden-4-yl)carbamoyl)-3-methoxypropane-1-sulfonamide], at most 5000 nM.
As to `CN1CCC(CS(=O)(=O)NC(=O)Nc2c(-c3ccncc3)cc(F)c3c2CCC3)C1` (centres unmarked) [Example 165, N-((7-Fluoro-5-(pyridin-4-yl)-2,3-dihydro-1H-inden-4-yl)carbamoyl)-1-(1-methylpyrrolidin-3-yl) methanesulfonamide], the IC50 was at most 5000 nM.
As to `CCn1nc(S(=O)(=O)NC(=O)Nc2c(-c3cccc(OC)c3)ccc3c2CCC3)cc1CN(C)C` [Example 194, 5-((Dimethylamino)methyl)-1-ethyl-N-((5-(3-methoxyphenyl)-2,3-dihydro-1H-inden-4-yl)carbamoyl)-1H-pyrazole-3-sulfonamide], the IC50 is at most 1000 nM.
For `CC(C)c1cccc(-n2ccnc2)c1NC(=O)NS(=O)(=O)c1ccn(C(C)C)n1` [Example 204, N-((2-(1H-Imidazol-1-yl)-6-isopropylphenyl)carbamoyl)-1-isopropyl-1H-pyrazole-3-sulfonamide], the IC50 was at most 5000 nM.
In the case of `CC(C)n1ccc(S(=O)(=O)NC(=O)Nc2c(-c3cccnc3)cc(F)cc2-c2cccnc2)n1` [Example 208, N-((4-Fluoro-2,6-di(pyridin-3-yl)phenyl)carbamoyl)-1-isopropyl-1H-pyrazole-3-sulfonamide] it was at most 5000 nM; in that of `COc1cc(-c2ccc3ncccc3c2NC(=O)NS(=O)(=O)c2ccn(C(C)C)n2)ccn1` [Example 212, 1-Isopropyl-N-((6-(2-methoxypyridin-4-yl)quinolin-5-yl)carbamoyl)-1H-pyrazole-3-sulfonamide], at most 5000 nM.
As for `COc1cc(-c2ccc3ccncc3c2NC(=O)NS(=O)(=O)c2ccn(C(C)C)n2)ccn1` [Example 217, 1-Isopropyl-N-((7-(2-methoxypyridin-4-yl)isoquinolin-8-yl)carbamoyl)-1H-pyrazole-3-sulfonamide], the figure is at most 10000 nM; as for `Cc1cc(-c2ccc3c(c2NC(=O)NS(=O)(=O)c2ccn(C(C)C)n2)CCC3)n(C)n1` [Example 220, N-((5-(1,3-Dimethyl-1H-pyrazol-5-yl)-2,3-dihydro-1H-inden-4-yl)carbamoyl)-1-isopropyl-1H-pyrazole-3-sulfonamide], at most 10000 nM.
